Patent publication US8222268B2, “Methods for reducing vein irritation” (Adventrx Pharmaceuticals, Inc., priority 2004, dated 2012)
Counter-ions that a name gives are not always drawn.

Experiments:
[1] = Dialysis test of vinorelbine incorporation into the oil phase of an emulsion; details: for effect of stabilizer on vinorelbine incorporation into the oil phase (vinorelbine concentration in PBS): dialysis against PBS pH 7.4, emulsion with […] (w/w) vinorelbine bitartrate, FIG. 1
Procedure: The concentration of each stabilizer added into formulation is: 1.57% (w/w) for sodium oleate, 2.73% (w/w) for vitamin E succinate, 2.46% (w/w) for riboflavin-5-phosphate sodium and 2.52% (w/w) for cholesterol sulfate. A formulation without any stabilizer (“control”) and a formulation with extra Phospholipon 90G were also evaluated in the study.
The drug incorporation into the oil phase was tested using a dialysis method developed specifically for this purpose. This method involved filling 500 mg of an emulsion into a Slide-A-Lyzer dialysis cassette with 10,000 MW cutoffs, placing the cassette in 70 mL phosphate buffered saline (PBS), pH 7.4 and shaking the solution on a platform shaker at 100 RPM.

[2] = in distilled water; bitartrate salt form; cited from earlier work

| SMILES | effect of stabilizer on vinorelbine incorporation into the oil phase (vinorelbine concentration in PBS) [1] | other results |
| --- | --- | --- |
| CCCCCCCC/C=C\CCCCCCCC(=O)[O-].[Na+] [sodium oleate] | most effective stabilizers | partition of vinorelbine into the aqueous phase ([1]; vinorelbine-to-oleate molar ratio of 1:4 (charge ratio of 1:1), dialysis, 28 hours, FIG. 2): almost completely stopped the partition of vinorelbine into the aqueous phase |
| CCC1=C[C@@H]2CN(C1)Cc1c([nH]c3ccccc13)[C@@](C(=O)OC)(c1cc3c(cc1OC)N(C)[C@H]1[C@@](O)(C(=O)OC)[C@H](OC(C)=O)[C@]4(CC)C=CCN5CC[C@]31[C@@H]54)C2 (relative stereo) [vinorelbine bitartrate, 3′,4′-didehydro-4′-deoxy-C′-norvincaleukoblastine [R-(R*,R*)-2,3-dihydroxybutanedioate (1:2) (salt)]] | – | aqueous solubility [2]: > 1000 mg/mL |
| Cc1cc2nc3c(=O)[nH]c(=O)nc-3n(C[C@H](O)[C@H](O)[C@H](O)COP(=O)([O-])O)c2cc1C.[Na+] [riboflavin-5-phosphate, riboflavin-5-phosphate sodium] | most effective stabilizers | – |
| Cc1c(C)c2c(c(C)c1OC(=O)CCC(=O)O)CC[C@@](C)(CCC[C@H](C)CCC[C@H](C)CCCC(C)C)O2 [Vitamin E succinate, vitamin E succinate] | most effective stabilizers | – |
| CCC1=C[C@@H]2CN(C1)Cc1c([nH]c3ccccc13)[C@@](C(=O)OC)(c1cc3c(cc1OC)N(C)[C@H]1[C@@](O)(C(=O)OC)[C@H](OC(C)=O)[C@]4(CC)C=CCN5CC[C@]31[C@@H]54)C2 [vinorelbine, reference compound] | – | incorporation of vinorelbine in the oil phase ([1]; emulsion without a stabilizer): present primarily in the aqueous phase |
